Tests used:
Assay type in all cases: functional
Trypanosoma cruzi [1] = test: Antiparasitic activity against Trypanosoma cruzi Tulahuen C4 intracellular amastigotes infected in rat L6 cells assessed as growth inhibition at 0.8 ug/ml after 96 hrs by CPRG/Nonidet reagent based photometric analysis relative to control; conditions: Tulahuen C4, L6, 96 h, read-out: GI
Trypanosoma cruzi [2] = test: Antiparasitic activity against Trypanosoma cruzi Tulahuen C4 intracellular amastigotes infected in rat L6 cells assessed as growth inhibition at 4.8 ug/ml after 96 hrs by CPRG/Nonidet reagent based photometric analysis relative to control; conditions: Tulahuen C4, L6, 96 h, read-out: GI
Leishmania donovani [3] = test: Antiparasitic activity against Leishmania donovani MHOM-ET-67/L82 axenic amastigotes assessed as growth inhibition at 0.8 ug/ml after 72 hrs by resazurin dye-based fluorometric analysis relative to control; conditions: MHOM-ET-67/L82, 72 h, read-out: GI
[4] = test system: Trypanosoma brucei rhodesiense; test: Antiparasitic activity against Trypanosoma brucei rhodesiense STIB 900 trypomastigote bloodstream form assessed as growth inhibition at 0.8 ug/ml after 72 hrs by resazurin dye-based fluorometric analysis relative to control; conditions: STIB 900, 72 h, read-out: GI
Leishmania donovani [5] = test: Antiparasitic activity against Leishmania donovani MHOM-ET-67/L82 axenic amastigotes assessed as growth inhibition at 4.8 ug/ml after 72 hrs by resazurin dye-based fluorometric analysis relative to control; conditions: MHOM-ET-67/L82, 72 h, read-out: GI
Plasmodium falciparum [6] = test: (§1) Antiparasitic activity against intraerythrocytic form of chloroquine/pyrimethamine-resistant Plasmodium falciparum K1 infected in human RBC assessed as growth inhibition at 0.8 ug/ml preincubated for 48 hrs followed by [3H]-hypoxanthine addition measured after 24 hrs by liquid scintillation counting analysis relative to control; conditions: read-out: GI
[7] = test system: Trypanosoma brucei rhodesiense; test: Antiparasitic activity against Trypanosoma brucei rhodesiense STIB 900 trypomastigote bloodstream form assessed as growth inhibition at 4.8 ug/ml after 72 hrs by resazurin dye-based fluorometric analysis relative to control; conditions: STIB 900, 72 h, read-out: GI
Plasmodium falciparum [8] = test: as §1, with “4.8” for “0.8”; conditions: read-out: GI

SMILES	inhibition of growth at 0.8 µg/mL (Trypanosoma cruzi [1])	inhibition of growth at 4.8 µg/mL (Trypanosoma cruzi [2])	inhibition of growth at 0.8 µg/mL (Leishmania donovani [3])	inhibition of growth at 0.8 µg/mL [4]	inhibition of growth at 4.8 µg/mL (Leishmania donovani [5])	inhibition of growth at 0.8 µg/mL (Plasmodium falciparum [6])	inhibition of growth at 4.8 µg/mL [7]	inhibition of growth at 4.8 µg/mL (Plasmodium falciparum [8])
O=[N+]([O-])c1ccccc1S(=O)(=O)n1nnc2ccccc21	7.3%	7.1%	32.7%	0%	89.4%	0%	1.3%	0%
CC1CCc2ccccc2N1S(=O)(=O)c1ccccc1[N+](=O)[O-] (centres undefined)	7.6%	43.7%	22.4%	0.4%	66.3%	8.8%	2.7%	67.5%
C[C@@H]1CC[C@H]2[C@@H](C)C(=O)O[C@@H]3O[C@@]4(C)CC[C@@H]1[C@]32OO4 [ARTEMISININ]	–	–	–	–	–	80%	–	100%
O=[N+]([O-])c1ccccc1S(=O)(=O)n1ccc2ccccc21	< 40%	–	–	–	–	–	–	–
O=S(=O)(c1ccc(C(F)(F)F)cc1)n1ccc2ccccc21	0%	0%	15.9%	1.4%	52.8%	4.3%	0%	53.2%
O=S(=O)(c1ccc(C(F)(F)F)cc1)n1nnc2ccccc21	5.5%	3%	21.8%	3.4%	44.8%	0%	0.4%	1%
CC(=O)c1ccc(S(=O)(=O)N2c3ccccc3CCC2C)cc1 (centres undefined)	0%	91.9%	6%	0%	45.7%	4%	1.5%	29.8%
CC(=O)c1ccc(S(=O)(=O)n2ccc3ccccc32)cc1	0%	0%	0%	2.2%	25.9%	12.2%	0%	40.8%
O=[N+]([O-])c1ccccc1S(=O)(=O)N1CCCc2ccccc21	0%	26.9%	10.1%	6.2%	50.1%	3.5%	17.1%	38%
O=S(=O)(c1cccc(C(F)(F)F)c1)n1ccc2ccccc21	0%	3.3%	11.7%	0%	45.7%	5%	0%	61.1%
O=S(=O)(c1ccc(F)cc1)N1CCc2ccccc21	0%	0.2%	11%	12.6%	62.7%	1.5%	19.2%	28.2%
CC1Cc2ccccc2N1S(=O)(=O)c1ccccc1[N+](=O)[O-] (centres undefined)	0%	15.1%	19.3%	6.3%	52.4%	14.8%	9.6%	50.5%
O=[N+]([O-])c1ccccc1S(=O)(=O)N1CCc2ccccc21	0%	24.5%	4%	10.4%	81.5%	4%	17.9%	48%
CC(C)(C)c1ccc(S(=O)(=O)N2CCCc3ccccc32)cc1	0%	55.6%	49.8%	6.7%	99.1%	23.5%	5.5%	91.6%
